# Results as given in patent US5998420A, “Method for treating Mycobacterium tuberculosis” (priority 1996, dated 1999).
# Like-named read-outs stand apart in the source and are kept apart here.
# What was measured:
# [1] = system: Mycobacterium tuberculosis strain RC1; assay: MIC by agar dilution, M. tuberculosis strain RC1; type: cell-based; settings: for MIC: Mycobacterium tuberculosis, RC1; for effect of LIV addition on toxicity, strain RC1: strain RC1, LIV added
# [2] = system: E. coli ketol-acid reductoisomerase; settings: cited from earlier work
# [3] = system: yeast isopropylmalate isomerase; settings: cited from earlier work; for inhibition of yeast isopropylmalate isomerase, 19 vs 21: fully ionized, nitronate forms
# [4] = system: yeast; settings: minimal media; cited from earlier work
# [5] = cited from earlier work; for decomposition (retro-aldol): in the presence of divalent metals, unpublished observation
# [6] = system: plants; settings: leucine alone; cited from earlier work
# [7] = system: Mycobacterium tuberculosis; settings: Heifets L. B. (1994); cited from earlier work
# [8] = system: Mycobacterium tuberculosis; settings: cited from earlier work; for change in final colony forming units vs starting: Klemens et al., 1994
# [9] = system: ketol-acid reductoisomerase from carrot (plant); settings: cited from earlier work
# [10] = system: ketol-acid reductoisomerase from Klebsiella pneumoniae; settings: cited from earlier work
# [11] = system: ketol-acid reductoisomerase; settings: cited from earlier work
# [12] = system: E. coli; settings: minimal media; cited from earlier work
# [13] = system: K. pneumoniae; settings: cited from earlier work
# [14] = system: carrot cells; settings: branched chain amino acids; cited from earlier work
# [15] = system: Mycobacterium tuberculosis strain ATCC35801; assay: MIC by agar dilution, M. tuberculosis strain ATCC35801; type: cell-based; settings: for MIC: Mycobacterium tuberculosis, ATCC35801; for effect of LIV addition on toxicity, strain ATCC35801: strain ATCC35801, LIV added
# [16] = system: E. coli ketol-acid reductoisomerase; settings: presence of Mg2+ and NADPH; read-out: overall dissociation constant; cited from earlier work
# [17] = system: acetolactate synthase from E. coli; settings: 1 mM; cited from earlier work
# [18] = system: dihydroxy acid dehydratase from E. coli; settings: 1 mM; cited from earlier work
# [19] = system: Mycobacterium tuberculosis strain ATCC35801; assay: Tuberculosis mouse model study, colony forming units in lungs and spleens; type: in vivo, mice
# [20] = type: in vivo, CD-1 female mice; settings: 500 mg/kg body weight subcutaneous each day for 30 days
# Procedure: To determine if high doses of sulfometuron methyl would be toxic to mice, a 20 mg/ml solution of this compound was prepared in phosphate buffered saline and 0.5 ml of this was injected subcutaneously into 4 day-old CD-1 female mice each day for 30 days. This dose corresponded to 500 mg sulfometuron methyl/kg body weight of the mouse. After the 30-day course of treatment the mice were sacrificed and the internal organs were examined by a veterinarian trained in laboratory animal care. The organs were compared to a control group that received injections of phosphate buffered saline.
# [21] = leucine, isoleucine, and valine added (+LIV), read-out: MIC +LIV, strain RC1
# [22] = no branched chain amino acids (-LIV), read-out: MIC -LIV, strain RC1
# [23] = leucine, isoleucine, and valine added (+LIV)
# [24] = no branched chain amino acids (-LIV)
smiles,measurement,setting,value
COc1nc(C)nc(NC(=O)NS(=O)(=O)c2ccccc2Cl)n1 [Chlorsulfuron],MIC,[1]; [21],> 35 µg/mL
same,MIC,[1]; [22],4.4 µg/mL
same,"effect of LIV addition on toxicity, strain RC1",[1],completely reversed the effects
O=C(O)C(=O)N(O)Cc1ccccc1 [Compound 13],"association rate for the inhibitor, benzyl (13) vs hydrogen (9) on nitrogen",[2]; relative to 9,increased the association rate for the inhibitor modestly
CCCCCCCCCCCCN(O)C(=O)C(=O)O [Compound 14],potency relative to 13,"[2]; 12-carbon chain on nitrogen, Aulabaugh & Schloss, unpublished",comparable in potency to 13
CC(C)C(C(O)C(=O)O)[N+](=O)[O-] (centres unmarked) [Compound 19],inhibition of yeast isopropylmalate isomerase,[3],potent inhibitors
same,"inhibition of yeast isopropylmalate isomerase, 19 vs 21",[3],comparable
same,growth of yeast,[4],no affect
same,decomposition (retro-aldol),[5],rapid rate
CC(C)C(O)(C[N+](=O)[O-])C(=O)O (centres unmarked) [Compound 20],inhibition of yeast isopropylmalate isomerase,[3],potent inhibitors
same,growth of yeast,[4],no affect
same,decomposition (retro-aldol),[5],rapid rate
O=C(O)C1(O)CCCC1[N+](=O)[O-] (centres unmarked) [Compound 21],"inhibition of yeast isopropylmalate isomerase, 19 vs 21",[3],comparable
same,"inhibition of isopropylmalate isomerase, 21 vs 19",[3]; physiological conditions (pH 7),much more potent inhibitor than 19
same,reversal of herbicidal activity,[6],reversed by leucine alone
same,stability of the molecule,[5]; cyclopentane ring of 21,insures stability of the molecule
CC[C@@H](CO)NCCN[C@@H](CC)CO [Ethambutol],MIC of first-line anti-tuberculosis drugs,[7],2 µg/mL
same,change in final colony forming units vs starting,[8],did not cause a decrease
"CP(C)(=O)C(O)C(=O)O (centres unmarked) [Hoe 704, 2-dimethylphosphinoyl-2-hydroxy acetic acid]",MIC,[1]; [22],> 37 µg/mL
same,inhibition of E. coli ketol-acid reductoisomerase,[2]; Hoe 704,potent and selective inhibitor
same,inhibition of carrot ketol-acid reductoisomerase,[9],potent and selective inhibitor
same,inhibition of Klebsiella pneumoniae ketol-acid reductoisomerase,[10],potent and selective inhibitor
same,inhibition of ketol-acid reductoisomerase,[11],potent inhibitors
same,growth inhibition of E. coli,[12],does not inhibit the growth
same,reversal of growth inhibitory effect on K. pneumoniae,[13]; branched chain amino acids and pantoate,requires both branched chain amino acids and pantoate
same,growth of K. pneumoniae,[13],does inhibit the growth
same,reversal of effect on carrot cells in culture,[14],can be reversed by branched chain amino acids alone
"CC(C)N(O)C(=O)C(=O)O [IpOHA, N-Isopropyloxayl hydroxamate]",MIC,[1]; [21],9.2 µg/mL
same,MIC,[1]; [22],9.2 µg/mL
same,"effect of LIV addition on toxicity, strain RC1",[1],did not reverse the toxic effects
same,MIC,[15]; [23],> 18 µg/mL
same,MIC,[15]; [24],18 µg/mL
same,"effect of LIV addition on toxicity, strain ATCC35801",[15],decreased the toxicity
same,Kd,[16],0.02 nM
same,inhibition of ketol-acid reductoisomerase,[11],potent inhibitors
same,effect on acetolactate synthase,[17],no effect
same,effect on dihydroxy acid dehydratase,[18],no effect
NNC(=O)c1ccncc1 [Isoniazid],MIC of first-line anti-tuberculosis drugs,[7],0.2 µg/mL
same,Mycobacterium tuberculosis in spleens and lungs of mice,"[8]; 25 mg/kg (Lalande et al., 1993)",significantly reduced
same,change in final colony forming units vs starting,[8],caused a decrease
NC(=O)c1cnccn1 [Pyrazinamide],MIC of first-line anti-tuberculosis drugs,[7],16 µg/mL
same,change in final colony forming units vs starting,[8],did not cause a decrease
CO[C@H]1/C=C/O[C@@]2(C)Oc3c(C)c(O)c4c(O)c(c(/C=N/N5CCN(C)CC5)c(O)c4c3C2=O)NC(=O)/C(C)=C\C=C\[C@H](C)[C@H](O)[C@@H](C)[C@@H](O)[C@@H](C)[C@H](OC(C)=O)[C@@H]1C [Rifampicin],MIC of first-line anti-tuberculosis drugs,[7],0.5 µg/mL
same,change in final colony forming units vs starting,[8],caused a decrease
"COC(=O)c1ccccc1S(=O)(=O)NC(=O)Nc1nc(C)cc(C)n1 [SM, sulfometuron methyl]",MIC,[1]; [21],1.8 µg/mL
same,MIC,[1]; [22],0.3 µg/mL
same,MIC,"[1]; read-out: minimum inhibitory concentration, medium supplemented with bovine serum albumin",4.4 µg/mL
same,MIC,"[1]; read-out: minimum inhibitory concentration, medium supplemented with sodium oleate and bovine serum albumin",2.2 µg/mL
same,"effect of LIV addition on toxicity, strain RC1",[1],partially reduced the toxicity
same,effect of isoleucine and valine addition on inhibition,"[1]; strain RC1, isoleucine and valine added",did not prevent inhibition
same,MIC,[15]; [23],> 3.6 µg/mL
same,MIC,[15]; [24],3.6 µg/mL
same,"effect of LIV addition on toxicity, strain ATCC35801",[15],prevented the toxicity
same,"Mann-Whitney U test, 2-tailed P, lungs",[19]; 20 mg/kg and 100 mg SM/kg,0.31
same,"Mann-Whitney U test, 2-tailed P, lungs",[19]; 20 mg/kg and 500 mg SM/kg,0.002
same,"Mann-Whitney U test, 2-tailed P, lungs",[19]; 100 mg/kg and 500 mg SM/kg,0.009
same,mice with more than 200 colony forming units in the lungs,"[19]; 500 mg sulfometuron methyl/kg, lungs, 31 days",none
same,"mice with more than 10^3 colony forming units/spleen, 500 mg/kg","[19]; 500 mg sulfometuron methyl/kg, spleen",13%
same,growth of Mycobacterium tuberculosis in the lungs,[19]; 500 mg/kg body weight,significantly reduced growth
same,"Mann-Whitney U test, 2-tailed P, lungs",[19]; PBS and 20 mg SM/kg,0.39
same,"Mann-Whitney U test, 2-tailed P, lungs",[19]; PBS and 100 mg SM/kg,0.65
same,"Mann-Whitney U test, 2-tailed P, lungs",[19]; PBS and 500 mg SM/kg,0.03
same,growth of Mycobacterium tuberculosis in a mouse model system,"[19]; mouse, in vivo",inhibites growth
same,"Kruskal-Wallis test, P, spleen","[19]; overall difference between four groups, spleen, P < 0.05 considered significant",> 0.05
same,mice with more than 10^3 colony forming units in the lungs,"[19]; pooled groups PBS, 20 mg/kg and 100 mg/kg SM, lungs, 31 days",65%
same,"mice with over 10^3 colony forming units/spleen, pooled groups","[19]; pooled groups PBS, 20 mg/kg and 100 mg/kg SM, spleen",52%
same,behavior of the mice and condition of the internal organs vs PBS,[20],No significant differences
[H]/N=C(/N)N[C@H]1[C@H](O)[C@@H](O)[C@H](O[C@@H]2O[C@@H](C)[C@](O)(C=O)[C@H]2O[C@@H]2O[C@@H](CO)[C@H](O)[C@@H](O)[C@@H]2NC)[C@@H](N/C(N)=N\[H])[C@@H]1O [Streptomycin],MIC of first-line anti-tuberculosis drugs,[7],3 µg/mL
